Experimental findings from patent US20180072997A1, “INHIBITORS OF HUMAN IMMUNODEFICIENCY VIRUS REPLICATION” (ViiV HEATHCARE UK (NO.5) LIMITED, priority 2015, published 2018) are described below.

One data set concerns uninfected MT2 cells. In words: Compound cytotoxicity, XTT-based colorimetric assay. It is filed as cell-based. The settings on record: day 4, XTT. In a few lines:
(§1)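 Run under the antiviral-assay protocol but without virus. Viability was read on day 4 and CC50 values were derived from the readout.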
For orientation: Tetrazolium dyes change colour on reduction, which living cells bring about.

The subject of data set [1] is recombinant NL4-3 virus (Renilla luciferase in nef) in MT-2 cells. In words: whole plant or invertebrate. It counts as cell-based, HIV. Conditions: luciferase activity. In outline: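 MT-2 cells infected for 4-5 days with NL4-3 reporter virus (Renilla luciferase replacing part of nef, produced by transfection of 293T cells) in the presence of serial compound dilutions. Antiviral activity quantified by luciferase activity read with a live-cell substrate.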

The nature of data set [2]: Compound cytotoxicity, XTT-based colorimetric assay. It is filed as cell-based. Conditions: human, uninfected MT2 cells, day 4, XTT. In a few lines:
as §1

[3] abbreviates: MT-2 cells infected for 4-5 days with recombinant NL4-3 Renilla luciferase virus.
Setting [4] is: Renilla, NL43, MT-2 cells infected for 4-5 days with recombinant NL4-3 Renilla luciferase virus.

SMILES strings stand for the structures.

Turning to `COc1ccc(N(C)C(=O)[C@H](Cc2ccccc2)NC(=O)C(C)n2c(=O)n(C(C)C(=O)N[C@@H](Cc3ccccc3)C(=O)N(C)c3ccc(OC)cc3)c3ccccc32)cc1` (single isomer, unassigned) [Example 134], in the data set on uninfected MT2 cells, the CC50 – broadly, the concentration giving 50% cytotoxicity – stood at 10.8 µM. Moreover, in data set [1] (setting [3]), the EC50 (commonly the concentration that produces a half-maximal response) was 0.82 µM.

As to `C=CCCN(C(=O)[C@H](Cc1cc(F)cc(F)c1)NC(=O)NS(=O)(=O)N[C@@H](Cc1cc(F)cc(F)c1)C(=O)N(CCC=C)c1ccc2scnc2c1)c1ccc2scnc2c1` (single isomer, unassigned) [Example 142], it took 17.4 µM to reach half-maximal cytotoxicity with uninfected MT2 cells (CC50). The concentration giving a half-maximal response (EC50) in data set [1] (setting [3]) was 0.82 µM.

`COc1ccc(N(C)C(=O)[C@H](Cc2ccccc2)NC(=O)C=C(C)CC(=O)N[C@@H](Cc2ccccc2)C(=O)N(C)c2ccc(OC)cc2)cc1` (single isomer, unassigned) [Example 114] came in with a CC50 in the data set on uninfected MT2 cells of 27.1 µM. Besides, the concentration giving a half-maximal response (EC50) in data set [1] (setting [3]) stood at 1.78 µM.

Compound `COc1ccc(N(C)C(=O)[C@H](Cc2cc(F)cc(F)c2)NC(=O)C(C)n2c(=O)n(C(C)C(=O)N[C@@H](Cc3cc(F)cc(F)c3)C(=O)N(C)c3ccc(OC)cc3)c3ccccc32)cc1` (single isomer, unassigned) [Example 133] displayed a cytotoxic concentration (CC50) in the data set on uninfected MT2 cells of 13.9 µM. Further, the EC50 in data set [1] (setting [3]) was 0.41 µM.

In the case of `COc1ccc(N(C)C(=O)[C@H](Cc2ccccc2)NC(=O)CN2CCN(CC(=O)N[C@@H](Cc3ccccc3)C(=O)N(C)c3ccc(OC)cc3)C2=O)cc1` [Example 48], it took 30.9 µM to reach half-maximal cytotoxicity in data set [2] (CC50 at 4 days). Moreover, the EC50 in data set [1] (setting [4]) came to 0.17 µM.

`COc1ccc(N(C)C(=O)[C@H](Cc2ccccc2)NC(=O)CCCC(=O)N[C@@H](Cc2ccccc2)C(=O)N(C)c2ccc(OC)cc2)cc1` [Example 22] showed a CC50 at 4 days in data set [2] of 21.1 µM. For the same compound, the EC50 in data set [1] (setting [4]) was determined as 1.31 µM.

Compound `COc1ccc(N(C)C(=O)[C@H](Cc2ccccc2)NC(=O)CN(CCO)CC(=O)N[C@@H](Cc2ccccc2)C(=O)N(C)c2ccc(OC)cc2)cc1` [Example 29] registered a CC50 at 4 days in data set [2] of 31.8 µM. The EC50 in data set [1] (setting [4]) was determined as 2.49 µM.

On to `COc1ccc(N(C)C(=O)[C@H](Cc2ccccc2)NC(=O)OCCOC(=O)N[C@@H](Cc2ccccc2)C(=O)N(C)c2ccc(OC)cc2)cc1` [Example 56], for which, in data set [2], the CC50 at 4 days was found to be 10.5 µM. In data set [1] (setting [4]), the EC50 was 2.6 µM.

As for `COc1ccc(N(C)C(=O)[C@H](Cc2cc(F)cc(F)c2)Nc2ccnc(N[C@@H](Cc3cc(F)cc(F)c3)C(=O)N(C)c3ccc(OC)cc3)n2)cc1` [Example 158], in data set [2], it took 12.4 µM to reach half-maximal cytotoxicity (CC50 at 4 days). In data set [1] (setting [4]), the EC50 turned out to be 9.53 µM.

Compound `COc1ccc(N(C)C(=O)[C@H](Cc2cc(F)cc(F)c2)NC(=O)CN2c3ccccc3N(CC(=O)N[C@@H](Cc3cc(F)cc(F)c3)C(=O)N(C)c3ccc(OC)nc3)S2(=O)=O)cn1` [Example 197] showed a CC50 at 4 days in data set [2] of 9.3 µM. Further, the EC50 in data set [1] (setting [4]) was 0.01 µM.

As to `CN(C(=O)[C@H](Cc1ccccc1)NC(=O)NS(=O)(=O)N[C@@H](Cc1ccccc1)C(=O)N(C)c1ccc2scnc2c1)c1ccc2scnc2c1` [Example 13], in data set [2], the CC50 at 4 days was at least 100 µM. Also, the EC50 in data set [1] (setting [4]) came to 0.08 µM.

Regarding `COc1ccc(N(C)C(=O)[C@H](Cc2ccccc2)NC(=O)C=C(C)CC(=O)N[C@@H](Cc2ccccc2)C(=O)N(C)c2ccc(OC)cc2)cc1` (single isomer, unassigned) [Example 113], the CC50 at 4 days in data set [2] was determined as 25.3 µM. Further, the EC50 in data set [1] (setting [3]) was 0.36 µM.

Regarding `COc1ccc(N(C)C(=O)[C@H](Cc2ccccc2)NC(=O)[C@H](C)NC(=O)N[C@@H](C)C(=O)N[C@@H](Cc2ccccc2)C(=O)N(C)c2ccc(OC)cc2)cc1` [Example 104], in data set [2], half-maximal cytotoxicity (CC50 at 4 days) was put at 31 µM. In addition, the EC50 in data set [1] (setting [4]) was found to be 0.13 µM.

Compound `COc1ccc(N(C)C(=O)[C@H](Cc2cc(F)cc(F)c2)NC(=O)Cn2c(=O)c3ccccc3c(=O)n2CC(=O)N[C@@H](Cc2cc(F)cc(F)c2)C(=O)N(C)c2ccc(OC)cc2)cc1` [Example 93] came in with a CC50 at 4 days in data set [2] of 5.7 µM. Also, the EC50 in data set [1] (setting [4]) was 0.09 µM.

Compound `C=CCN(C(=O)[C@H](Cc1cc(F)cc(F)c1)NC(=O)NS(=O)(=O)N[C@@H](Cc1cc(F)cc(F)c1)C(=O)N(CC=C)c1ccc(OC)nc1)c1ccc(OC)nc1` [Example 194] showed a CC50 at 4 days in data set [2] of 41.9 µM. Further, the EC50 in data set [1] (setting [4]) is 0.58 µM.

Turning to `COc1ccc(N(C)C(=O)[C@H](Cc2cc(F)cc(F)c2)NC(=O)NS(=O)(=O)N[C@@H](Cc2cc(F)cc(F)c2)C(=O)N(C)c2ccc(OC)nc2)cn1` [Example 176], the CC50 at 4 days in data set [2] was at least 100 µM. Also, in data set [1] (setting [4]), the EC50 amounted to 0.04 µM.

Turning to `COc1ccc(N(C)C(=O)[C@H](Cc2cc(F)cc(F)c2)NC(=O)CN2c3ccccc3N(CC(=O)N[C@@H](Cc3cc(F)cc(F)c3)C(=O)N(C)c3ccc(OC)cc3)S2(=O)=O)cc1` [Example 34], the CC50 at 4 days in data set [2] is at least 100 µM. In addition, in data set [1] (setting [4]), the EC50 turned out to be 0.01 µM.

With `COc1ccc(N(C)C(=O)[C@H](Cc2cc(F)cc(F)c2)NC(=O)Cn2c(=O)n(CC(=O)N[C@@H](Cc3cc(F)cc(F)c3)C(=O)N(C)c3ccc(OC)cc3)c3cc(OC)ccc32)cc1` [Example 84], the CC50 at 4 days in data set [2] came out at 6.9 µM. For the same compound, the EC50 in data set [1] (setting [4]) was 0.04 µM.

As for `CN(C(=O)[C@H](Cc1cc(F)cc(F)c1)NC(=O)NS(=O)(=O)N[C@@H](Cc1cc(F)cc(F)c1)C(=O)N(C)c1ccc2snnc2c1)c1ccc2snnc2c1` [Example 177], in data set [2], the CC50 at 4 days was determined as 88 µM. The EC50 in data set [1] (setting [4]) was 0.27 µM.

The compound `C=CCN(C(=O)[C@H](Cc1cc(F)cc(F)c1)NC(=O)NS(=O)(=O)N[C@@H](Cc1cc(F)cc(F)c1)C(=O)N(CC=C)c1ccc(OC)cc1)c1ccc(OC)cc1` [Example 120] had a CC50 at 4 days in data set [2] of 23.3 µM. Moreover, the EC50 in data set [1] (setting [4]) turned out to be 0.26 µM.

In data set [2], `Cc1cc(N(C)C(=O)[C@H](Cc2cc(F)cc(F)c2)NC(=O)NS(=O)(=O)N[C@@H](Cc2cc(F)cc(F)c2)C(=O)N(C)c2cnc(C)c(C)c2)cnc1C` [Example 235] gave a CC50 at 4 days of at least 100 µM. Also, the EC50 in data set [1] (setting [4]) turned out to be 7 µM.

With `COc1ccc(N(C)C(=O)[C@H](Cc2cc(F)cc(F)c2)NC(=O)Cn2c(=O)c3ccccc3n(CC(=O)N[C@@H](Cc3cc(F)cc(F)c3)C(=O)N(C)c3ccc(OC)cc3)c2=O)cc1` [Example 101], the CC50 at 4 days in data set [2] was at least 100 µM. In data set [1] (setting [4]), the EC50 is 0.03 µM.

With `NC(=O)c1cc(-c2cccnc2[C@H](Cc2cc(F)cc(F)c2)NC(=O)NS(=O)(=O)N[C@@H](Cc2cc(F)cc(F)c2)c2ncccc2-c2ccc(F)c(C(N)=O)c2)ccc1F` [Example 70], the CC50 at 4 days in data set [2] was at least 100 µM. Also, in data set [1] (setting [4]), the EC50 came to 0.15 µM.

Consider `C=CCN(C(=O)[C@H](Cc1cc(F)cc(F)c1)NC(=O)CCC(=O)N[C@@H](Cc1cc(F)cc(F)c1)C(=O)N(CC=C)c1ccc(OC)cc1)c1ccc(OC)cc1` [Example 170], for which the CC50 at 4 days in data set [2] came out at 28.4 µM. The EC50 in data set [1] (setting [4]) is 7.66 µM.
